US8273775B2, “Non-steroidal brassinosteroid mimetic” (priority 2006, dated 2012)

System: gene expression in Col-0 seedling shoots
Experiment: Microarray analysis (ATH1 Affymetrix) after BL or abrasin treatment
Assay type: in vivo, Arabidopsis
Settings: 120 min
Procedure: FIG. 14: Clustering of gene expression profiles by QT-clust analysis. Clusters illustrating the major patterns of the data sets. Points: BIK-30: 30 μM abrasin 30 min; BL-30: 1 μM brassinolide 30 min; DMSO-30: control DMSO 30 min; BIK-120: 30 μM abrasin 120 min; BL-120: 1 μM brassinolide 120 min; DMSO-120: control DMSO 120 min.
Col-0 seeds were germinated vertically on ½ MS medium for 7 days under 16 h light/8 h dark cycles. The seedlings were overlaid with liquid ½ MS medium containing 1 μM brassinolide (BL, Fuji Chemical Industries, Ltd., Toyama, Japan), 30 μM abrasin (BIK, ChemBridge Corporation) and DMSO and treated for 30 and 120 min. The shoot parts were collected for RNA isolation. All sampling points were performed in three independent experiments. RNA was extracted using RNeasy kit (Qiagene). […] total RNA per array was used to hybridise the ATH1 Affymetrix Arabidopsis arrays according to standard procedure. The overrepresentation analyses were performed using BiNGO software (Maere et al., 2005).
We performed a microarray analysis using the Arabidopsis whole genome chip (Affymetix) to determine whether abrasin activated the expression of BR-inducible genes at transcriptional level. Wild-type Col-0 seedlings were exposed to 1 μM BL, 30 μM ABRASIN and DMSO (mock-treatment) for two time points (30 min and 120 min) and the shoot parts were collected for RNA isolation. The analysis of the variance of the normalized gene expression data took in account the variability parameters affecting the expression level: type of hormone treatment, duration of treatment and the interaction between these two.

## CC(C)[C@H](C)[C@@H](O)[C@H](O)[C@@H](C)[C@H]1CC[C@H]2[C@@H]3COC(=O)[C@H]4C[C@H](O)[C@H](O)C[C@]4(C)[C@H]3CC[C@]12C [BL, brassinolide, reference compound]
  Fold-change AT4G16780 homeobox-leucine zipper protein 4 (HAT4)/HD-ZIP protein: 0.51
  Fold-change AT4G17250 expressed protein: 1.82
  Fold-change AT4G17460 homeobox-leucine zipper protein 1 (HAT1)/HD-ZIP protein 1: 0.19
  Fold-change AT4G21510 F-box family protein: 2.09
  Fold-change AT4G23030 MATE efflux protein-related: 2.20
  Fold-change AT4G23070 rhomboid family protein: 2.03
  Fold-change AT4G23810 WRKY family transcription factor: 0.55
  Fold-change AT4G24160 hydrolase, alpha/beta fold family protein: 1.14
  Fold-change AT4G25620 hydroxyproline-rich glycoprotein family protein: 0.86
  Fold-change AT4G25780 pathogenesis-related protein: 0.26
  Fold-change AT4G27970 C4-dicarboxylate transporter/malic acid transport family protein: 1.28
  Fold-change AT4G28240 wound-responsive protein-related: 0.41
  Fold-change AT4G28490 leucine-rich repeat transmembrane protein kinase, putative: 0.78
  Fold-change AT4G28703 expressed protein: 0.89
  Fold-change AT4G28780 GDSL-motif lipase/hydrolase family protein: 2.29
  Fold-change AT4G29070 expressed protein: 0.74
  Fold-change AT4G30080 transcriptional factor B3 family protein: 0.49
  Fold-change AT4G31020 expressed protein: 0.67
  Fold-change AT4G32280 auxin-responsive AUX/IAA family protein (IAA29): 0.22
  Fold-change AT4G33050 calmodulin-binding family protein: 0.57
  Fold-change AT4G33700 CBS domain-containing protein: 0.51
  Fold-change AT4G34610 homeodomain-containing protein: 0.37
  Fold-change AT4G36110 auxin-responsive protein: 7.86
  Fold-change AT4G36780 brassinosteroid signalling positive regulator-related: 0.09
  Fold-change AT4G37240 expressed protein: 2.33
  Fold-change AT4G37290 expressed protein: 0.40
  Fold-change AT4G37590 phototropic-responsive NPH3 family protein: 0.53
  Fold-change AT4G38840 auxin-responsive protein (SAUR14): 2.53
  Fold-change AT4G38850 auxin-responsive protein (SAUR-AC1): 3.03
  Fold-change AT4G38860 auxin-responsive protein (SAUR16): 3.40
  Fold-change AT4G39400 brassinosteroid insensitive 1 (BRI1): 0.57
  Fold-change AT5G02020 expressed protein: 0.96
  Fold-change AT5G05690 cytochrome P450 90A1 (CYP90A1) (CYP90) (CPD): 0.41
  Fold-change AT5G07690 myb family transcription factor (MYB29): 0.40
  Fold-change AT5G08130 basic helix-loop-helix (bHLH) family protein (BIM2): 0.42
  Fold-change AT5G12050 expressed protein: 0.34
  Fold-change AT5G13180 no apical meristem (NAM) family protein: 0.50
  Fold-change AT5G13740 sugar transporter family protein: 0.36
  Fold-change AT5G14730 expressed protein: 0.55
  Fold-change AT5G16200 50S ribosomal protein-related: 0.20
  Fold-change AT5G16980 NADP-dependent oxidoreductase: 1.26
  Fold-change AT5G18750 DNAJ heat shock N-terminal domain-containing protein: 0.56
  Fold-change AT5G19200 short-chain dehydrogenase/reductase (SDR) family protein: 2.47
  Fold-change AT5G19340 expressed protein: 0.39
  Fold-change AT5G24030 C4-dicarboxylate transporter/malic acid transport family protein: 1.90
  Fold-change AT5G24660 expressed protein: 2.26
  Fold-change AT5G25240 expressed protein: 3.69
  Fold-change AT5G25930 leucine-rich repeat family protein: 0.63
  Fold-change AT5G27350 sugar-porter family protein 1 (SFP1): 2.04
  Fold-change AT5G27670 histone H2A: 0.50
  Fold-change AT5G38310 expressed protein: 0.93
  Fold-change AT5G38990; AT5G39000 [AT5G38990, protein kinase family protein: 0.74
  Fold-change AT5G39050 transferase family protein: 0.62
  Fold-change AT5G39610 no apical meristem (NAM) family protein: 0.22
  Fold-change AT5G39970 expressed protein: 0.99
  Fold-change AT5G42830 transferase family protein: 0.62
  Fold-change AT5G47370 homeobox-leucine zipper protein 2 (HAT2): 0.87
  Fold-change AT5G48070 putative xyloglucan endotransglycosylase/hydrolase: 1.24
  Fold-change AT5G48540 33 kDa secretory protein-related: 0.55
  Fold-change AT5G51550 phosphate-responsive 1 family protein: 0.37
  Fold-change AT5G54490 calcium-binding EF-hand protein, putative: 1.75
  Fold-change AT5G54860 integral membrane transporter family protein: 0.82
  Fold-change AT5G55970 zinc finger (C3HC4-type RING finger) family protein: 1.82
  Fold-change AT5G56980 expressed protein: 0.20
  Fold-change AT5G57190 phosphatidylserine decarboxylase: 0.60
  Fold-change AT5G57780 expressed protein: 0.12
  Fold-change AT5G59080 expressed protein: 0.53
  Fold-change AT5G60200 Dof-type zinc finger domain-containing protein: 1.67
  Fold-change AT5G60270 lectin protein kinase family protein: 1.82
  Fold-change AT5G60630 expressed protein: 1.15
  Fold-change AT5G61600 encodes a member of the ERF (ethylene response factor): 2.06
  Fold-change AT5G62360 invertase/pectin methylesterase inhibitor family protein: 0.45
  Fold-change AT5G65310 homeobox-leucine zipper protein 5 (HB-5)/HD-ZIP transcription factor 5: 0.27
  Fold-change AT5G66420 expressed protein: 0.43
  Fold-change AT5G66590 allergen V5/Tpx-1-related family protein: 0.58
  Fold-change AT5G67450 zinc finger (C2H2 type) protein 1 (AZF1): 0.89
245479_at, Cluster 6
  Fold-change of gene AT4G16140 (proline-rich family protein): 0.75
245543_at, Cluster 7
  Fold-change of gene AT4G15260 (UDP-glucoronosyl/UDP-glucosyl transferase family protein): 0.67
245885_at, Cluster 5
  Fold-change of gene AT5G09440 (phosphate-responsive protein, putative): 0.13
246389_at, Cluster 10
  Fold-change of gene AT1G77380 (amino acid carrier): 0.40
246516_at, Cluster 5
  Fold-change of gene AT5G15740 (expressed protein): 0.69
247177_at, Cluster 5
  Fold-change of gene AT5G65300 (expressed protein): 0.36
247205_at, Cluster 10
  Fold-change of gene AT5G64890 (expressed protein): 0.85
247351_at, Cluster 9
  Fold-change of gene AT5G63790 (no apical meristem (NAM) family protein): 0.27
247444_at, Cluster 7
  Fold-change of gene AT5G62630 (expressed protein): 1.26
247601_at, Cluster 10
  Fold-change of gene AT5G60850 (Dof-type zinc finger domain-containing protein): 1.10
247704_at, Cluster 9
  Fold-change of gene AT5G59510 (expressed protein): 0.13
247774_at, Cluster 5
  Fold-change of gene AT5G58660 (oxidoreductase. 2OG-Fe(II) oxygenase family protein): 2.85
248190_at, Cluster 5
  Fold-change of gene AT5G54120 (expressed protein): 0.94
248191_at, Cluster 5
  Fold-change of gene AT5G54130 (calcium-binding EF hand family protein): 0.88
248282_at, Cluster 6
  Fold-change of gene AT5G52900 (expressed protein): 0.50
248646_at, Cluster 9
  Fold-change of gene AT5G49100 (expressed protein): 0.38
250012_x_at, Cluster 6
  Fold-change of gene AT5G18060 (auxin-responsive protein): 0.28
250493_at, Cluster 9
  Fold-change of gene AT5G09800 (U-box domain-containing protein): 0.30
250537_at, Cluster 8
  Fold-change of gene AT5G08565 (expressed protein): 0.78
250907_at, Cluster 5
  Fold-change of gene AT5G03670 (expressed protein): 0.37
251072_at, Cluster 5
  Fold-change of gene AT5G01740 (expressed protein): 0.47
251176_at, Cluster 10
  Fold-change of gene AT3G63380 (calcium-transporting ATPase): 0.10
251342_at, Cluster 9
  Fold-change of gene AT3G60690 (auxin-responsive family protein): 0.27
252586_at, Cluster 10
  Fold-change of gene AT3G45610 (Dof-type zinc finger domain): 1.05
252646_at, Cluster 5
  Fold-change of gene AT3G44610 (protein kinase family protein): 1.03
253255_at, Cluster 6
  Fold-change of gene AT4G34760 (auxin-responsive family protein): 0.62
253281_at, Cluster 7
  Fold-change of gene AT4G34138 (UDP-glucoronosyl/UDP-glucosyl transferase family protein): 1.74
253483_at, Cluster 5
  Fold-change of gene AT4G31910 (transferase family protein): 0.78
253617_at, Cluster 5
  Fold-change of gene AT4G30410 (expressed protein): 0.45
253629_at, Cluster 5
  Fold-change of gene AT4G30450 (glycine-rich protein): 0.59
253999_at, Cluster 9
  Fold-change of gene AT4G26200 (1-aminocyclopropane-1-carboxylate synthase): 0.11
255403_at, Cluster 6
  Fold-change of gene AT4G03400 (auxin-responsive GH3 family protein): 0.48
255443_at, Cluster 7
  Fold-change of gene AT4G02700 (sulfate transporter): 1.20
255926_at, Cluster 8
  Fold-change of gene AT1G22190 (AP2 domain-containing transcription factor): 0.89
256528_at, Cluster 6
  Fold-change of gene AT1G66140 (zinc finger (C2H2 type) family protein): 0.46
256762_at, Cluster 8
  Fold-change of gene AT3G25655 (expressed protein): 0.12
256818_at, Cluster 7
  Fold-change of gene AT3G21420 (oxidoreductase, 2OG-Fe(II) oxygenase family protein): 1.29
257066_at, Cluster 5
  Fold-change of gene AT3G18280 (protease inhibitor/seed storage/lipid transfer protein): 0.92
257506_at, Cluster 6
  Fold-change of gene AT1G29440 (auxin-responsive family protein): 0.34
257746_at, Cluster 5
  Fold-change of gene AT3G29200 (chorismate mutase, chloroplast (CM1)): 0.66
259364_at, Cluster 8
  Fold-change of gene AT1G13260 (DNA-binding protein RAV1 (RAV1)): 0.67
259773_at, Cluster 6
  Fold-change of gene AT1G29500 (auxin-responsive protein): 0.39
259783_at, Cluster 6
  Fold-change of gene AT1G29510 (auxin-responsive protein): 0.36
259784_at, Cluster 6
  Fold-change of gene AT1G29450 (auxin-responsive protein): 0.37
259787_at, Cluster 6
  Fold-change of gene AT1G29460 (auxin-responsive protein): 0.28
259875_s_at, Cluster 7
  Fold-change of gene AT1G76690; AT1G76680 ([AT1G76690, 12-oxophytodienoate reductase (OPR2)): 0.89
259985_at, Cluster 8
  Fold-change of gene AT1G76620 (expressed protein): 0.37
260243_at, Cluster 10
  Fold-change of gene AT1G63720 (expressed protein): 0.17
260727_at, Cluster 8
  Fold-change of gene AT1G48100 (glycoside hydrolase family 28 protein): 1.16
261023_at, Cluster 7
  Fold-change of gene AT1G12200 (flavin-containing monooxygenase family protein): 1.40
261203_at, Cluster 6
  Fold-change of gene AT1G12845 (expressed protein): 0.47
261768_at, Cluster 6
  Fold-change of gene AT1G15550 (gibberellin 3-beta-dioxygenase): 0.52
261892_at, Cluster 9
  Fold-change of gene AT1G80840 (WRKY family transcription factor): 0.05
262040_at, Cluster 6
  Fold-change of gene AT1G80080 (leucine-rich repeat family protein): 0.39
262050_at, Cluster 8
  Fold-change of gene AT1G80130 (expressed protein): 0.36
262505_at, Cluster 10
  Fold-change of gene AT1G21680 (expressed protein): 1.29
262543_at, Cluster 6
  Fold-change of gene AT1G34245 (expressed protein): 0.67
263126_at, Cluster 7
  Fold-change of gene AT1G78460 (SOUL heme-binding family protein): 1.49
264279_s_at, Cluster 7
  Fold-change of gene AT1G78820; AT1G78830 ([AT1G78820, curculin-like (mannose-binding) lectin family protein): 0.86
265877_at, Cluster 6
  Fold-change of gene AT2G42380 (bZIP transcription factor family protein): 0.39
266124_at, Cluster 8
  Fold-change of gene AT2G45080 (cyclin family protein): 0.27
